One series has as its target T1, human GluR4B receptor (Homo sapiens, UniProt P48058).
T1 construct: expressed in transfected cells
Kind of series: potentiation of agonist-induced excitability, HEK cells expressing human GluR4B (Fluo3-AM fluorescence, glutamate). The settings on record: human GluR4B receptor expressed in HEK 293 cells. The series is classed as cell-based. As to the method:
96 well plates containing confluent monolayers of HEK cells stably expressing human GluR^4B (obtained as described in European Patent Application Publication Number EP-A1-583917) were prepared. The tissue culture medium in the wells was then discarded, and the wells were each washed once with 200 μl of 5NaCa buffer (glucose, 10 mM, sodium chloride, 138 mM, magnesium chloride, 1 mM, potassium chloride, 5 mM, calcium chloride, 5 mM, N-[2-hydroxyethyl]-piperazine-N-[2-ethanesulfonic acid], 10 mM, to pH 7.1 to 7.3). The plates were then incubated for 60 minutes in the dark with 20 μM Fluo3-AM dye (obtained from Molecular Probes Inc, Eugene, Oreg.) in 5 NaCa buffer in each well. After the incubation, each well was washed once with 100 μl 5NaCa buffer, 200 μl of 5NaCa buffer was added and the plates were incubated for 30 minutes. […]
Each test was then performed as follows. […] A first reading was then taken using a FLUOROSKAN II fluorimeter (Obtained from Labsystems, Needham Heights, Mass., USA, a Division of Life Sciences International Plc). […] A second reading was then taken using the fluorimeter. The plate was then left in the fluorimeter for 5 minutes, and a third reading was taken. 15 μl of 400 μM glutamate solution was then added to each well (final glutamate concentration 100 μM), and a fourth reading was taken immediately. Approximately three minutes later, a fifth reading was taken. […]

A further series has as its target human GluR4 (Homo sapiens, UniProt P48058). Kind of series: whole cell voltage clamp electrophysiological characterization of AMPA receptor potentiators (response to 100 μM glutamate). Type of series: cell-based. As to conditions: HEK293 cells stably expressing human GluR4, voltage-clamped at −60 mV, Hill equation fit. From the text: In another test, HEK293 cells stably expressing human GluR^4 (obtained as described in European Patent Application Publication No. EP-A1-0583917) were used in the electro-physiological characterization of AMPA receptor potentiators. The extracellular recording solution contained (in mM): 140 NaCl, 5 KCl, 10 HEPES, 1 MgCl2, 2 CaCl2, 10 glucose, pH=7.4 with NaOH, 295 mOsm kg^−1. The intracellular recording solution contained (in mM): 140 CsCl, 1 MgCl2, 10 HEPES, (N-[2-hydroxyethyl]piperazine-N^1-[2-ethanesulfonic acid]) 10 EGTA (ethylene-bis(oxyethylene-nitrilo)tetraacetic acid), pH=7.2 with CsOH, 295 mOsm kg^−1. […] Once stable baseline responses to this agonist challenge were obtained, the potentiator was introduced in the extracellular solution bathing the cells at the lowest concentration, and the response to 100 μM glutamate in the presence of this concentration of potentiator was determined.
The concentration of the potentiator, both in the bathing solution and co-applied with the agonist, was increased in half log units until the maximum potentiation was seen. […] Once the control responses to the agonist challenge were re-established, the potentiation of these responses by 100 μM cyclothiazide was determined by its inclusion in both the bathing solution and the agonist-containing solution. […]

T1 sequence (P48058 21-902): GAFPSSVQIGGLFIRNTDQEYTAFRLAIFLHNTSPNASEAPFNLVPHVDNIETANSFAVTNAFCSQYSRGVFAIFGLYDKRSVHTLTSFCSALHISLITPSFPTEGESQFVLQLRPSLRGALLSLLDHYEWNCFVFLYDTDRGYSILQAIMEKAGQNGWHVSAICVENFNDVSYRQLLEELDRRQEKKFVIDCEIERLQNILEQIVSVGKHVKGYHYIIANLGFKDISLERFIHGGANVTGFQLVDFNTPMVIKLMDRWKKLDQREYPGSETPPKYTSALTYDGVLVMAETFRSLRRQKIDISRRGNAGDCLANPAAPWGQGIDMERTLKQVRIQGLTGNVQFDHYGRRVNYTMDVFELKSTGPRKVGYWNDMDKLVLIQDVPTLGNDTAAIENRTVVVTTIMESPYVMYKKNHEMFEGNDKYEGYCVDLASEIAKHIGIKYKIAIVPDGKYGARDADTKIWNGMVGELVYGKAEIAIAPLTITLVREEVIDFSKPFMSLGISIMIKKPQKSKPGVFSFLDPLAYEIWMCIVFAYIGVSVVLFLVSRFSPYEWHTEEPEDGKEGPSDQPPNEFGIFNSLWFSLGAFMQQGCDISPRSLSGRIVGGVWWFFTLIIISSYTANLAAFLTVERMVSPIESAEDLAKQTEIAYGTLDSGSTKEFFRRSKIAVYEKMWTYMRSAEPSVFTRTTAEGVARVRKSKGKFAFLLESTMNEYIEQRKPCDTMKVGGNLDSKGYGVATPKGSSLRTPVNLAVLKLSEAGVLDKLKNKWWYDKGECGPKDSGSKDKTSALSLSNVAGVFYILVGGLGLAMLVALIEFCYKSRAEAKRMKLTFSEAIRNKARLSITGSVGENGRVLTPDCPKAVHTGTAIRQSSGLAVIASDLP
Chain of human GluR4 (P48058 21-902): as above

As for `CC(C)S(=O)(=O)NCC1(c2ccc(C(C)(C)C)cc2)CC1` [Example 25, N-1-(4-t-butylphenyl)cyclopropylmethyl 2-propanesulfonamide], the melting point (usually the temperature of the solid-liquid transition) lay in the range of 87 to 89.5 °C.

For the compound `NS(=O)(=O)c1cc2c(cc1Cl)NC(C1CC3C=CC1C3)NS2(=O)=O` (stereo not shown) [cyclothiazide], at human GluR4B receptor, the “potentiation of agonist-induced excitability of human GluR4B receptor” value is listed as “potentiate agonist-induced excitability”.

Consider `CC(CNS(=O)(=O)C(C)C)c1ccc(-c2ccsc2)cc1` (stereo not shown) [Example 28], for which, on human GluR4, the EC50 – broadly, the concentration that produces a half-maximal response – was found to be 230 ± 59 nM.

Regarding `CC(C)(C)c1ccc(C2(CNS(=O)(=O)C(F)(F)F)CC2)cc1` [Example 24, N−1-(4-t-butylphenyl)cyclopropylmethyl Trifluoromethanesulfonamide], the melting point lay in the range of 82 to 84 °C.

The values are drawn from US20040054009A1, “(BIS)sulfonamide derivatives” (priority 2002, published 2004).
